Values quoted from earlier work, collected in patent US20220160797A1 (North Carolina State University, priority 2019, published 2022).

System: L. acidophilus NCFM
Details: grown on esculin compared to lactose

Structure (SMILES): O=c1ccc2cc(O[C@@H]3O[C@H](CO)[C@@H](O)[C@H](O)[C@H]3O)c(O)cc2o1 [esculin]
- up-regulation of gene lba0753: 2.3 log2
